The structures appear in SMILES notation.

The target of this assay is T1, human SK3 channel (hKCa2.3) (Homo sapiens, UniProt Q9UGI6).
T1 construct: expressed in transfected cells
The assay can be described thus: Automated whole cell patch-clamp (QPatch 16 HT), inhibition of SK3 current. The following applies: HEK-293 cells stably expressing hKCa2.3; symmetrical K+ solutions, free calcium 400 nM; effects normalized to N-methyl bicuculline. The assay is classed as cell-based. The protocol: Automated whole cell patch-clamp recordings were performed using a QPatch 16 HT system and single-hole Qplates (Biolin Scientific, Sophion, Denmark) on HEK-293 cells stably expressing the human SK3 channel (hKCa2.3). Cells were cultured and prepared for experiments using normal cell culturing procedures. A total of 4-5 million cells were used per experiment. The Qpatch automatically generates giga sealing, whole-cell formation, compound application and recording of current. hKCa2.3 currents were recorded in symmetrical K^+ solutions, with an intracellular solution consisting of in mM: KCl 108; KOH/EGTA (ethylene glycol-bis(2-aminoethylether)-N,N,N′,N′-tetraacetic acid) 31.25/10; CaCl2) 8.1; MgCl2 1.2; HEPES (2-[4-(2-hydroxyethyl)piperazin-1-yl]ethanesulfonic acid) 10; KOH 15, pH adjusted to pH=7.2 with HCl. The free calcium concentration was calculated to 400 nM. The extracellular solution consisted of in mM: KCl 150; CaCl2) 0.1; MgCl2 3; HEPES 10; Glucose 10, pH=7.4 with KOH. The cells were held at 0 mV and hKCa2.3 currents were elicited by a linear voltage ramp from […] (200 ms in duration) applied every 5th second. The compound application protocol consisted of 12 recording periods lasting from 50-200 s: 1) Baseline recordings in extracellular solution; 2) Application of the positive control N-methyl bicuculline (100 μM), which is characterized by full efficacy, fast on- and off-rate; 3-4) Wash-out; 5-9) Increasing concentrations of test compound to establish an IC50 value; 10-11) Wash-out; 12) positive control with compound NS8593 (N-[(1R)-1,2,3,4-tetrahydro-1-naphthalenyl]-1H-benzimidazol-2-amine) (1 μM). Data were sampled at 10 kHz, 4th order Bessel filter, cut-off frequency 3 kHz. Currents were compensated for run-down. Potency was quantified as the concentration needed to inhibit half of the SK channel activity and reported as an IC50 value. All effects of compounds of the present invention as tested were normalized to the observed inhibitory effect of N-methyl bicuculline.
In general, IC50 refers to the concentration that gives 50% inhibition. On to `CCN(CCO)C(=O)CC(Nc1nc2ccccc2[nH]1)c1cccc(C(F)(F)F)c1` (stereo not shown) [Example 41, 3-[(1H-1,3-benzodiazol-2-yl)amino]-N-ethyl-N-(2-hydroxy-ethyl)-3-[3-(trifluoromethyl)phenyl]propanamide], for which the IC50 was less than 10 µM. The result for `COCCNC(=O)CC(Nc1nc2ccccc2[nH]1)c1cccc(C(F)(F)F)c1` (stereo not shown) [Example 42, 3-[(1H-1,3-benzodiazol-2-yl)amino]-N-(2-methoxyethyl)-3-[3-(trifluoromethyl)phenyl]propanamide] reads less than 10 µM; that for `COCCN(C)C(=O)CC(Nc1nc2ccccc2[nH]1)c1cccc(C(F)(F)F)c1` (stereo not shown) [Example 43, 3-[(1H-1,3-benzodiazol-2-yl)amino]-N-(2-methoxyethyl)-N-methyl-3-[3-(trifluoromethyl)phenyl]propanamide], less than 10 µM; that for `CNCCN(C)C(=O)CC(Nc1nc2ccccc2[nH]1)c1cccc(C(F)(F)F)c1` (stereo not shown) [Example 44, 3-[(1H-1,3-benzodiazol-2-yl)amino]-N-methyl-N-[2-(methylamino)ethyl]-3-[3-(trifluoromethyl)phenyl]propanamide], 10 to 100 µM. Regarding `CCN(CCN(C)C)C(=O)CC(Nc1nc2ccccc2[nH]1)c1cccc(C(F)(F)F)c1` (stereo not shown) [Example 45, 3-[(1H-1,3-benzodiazol-2-yl)amino]-N-[2-(dimethylamino)ethyl]-N-ethyl-3-[3-(trifluoromethyl)phenyl]propanamide], the IC50 lay in the range of 10 to 100 µM. Consider `COC(=O)[C@@H](C)NC(=O)CC(Nc1nc2ccccc2[nH]1)c1cccc(C(F)(F)F)c1` (stereo partly drawn) [Example 46, Methyl (2R)-2-{3-[(1H-1,3-benzodiazol-2-yl)amino]-3-[3-(trifluoromethyl)phenyl]propanamido}propanoate], for which the IC50 was less than 10 µM. Regarding `CCN(CC(=O)OC)C(=O)CC(Nc1nc2ccccc2[nH]1)c1cccc(C(F)(F)F)c1` (stereo not shown) [Example 47, Methyl 2-{3-[(1H-1,3-benzodiazol-2-yl)amino]-N-ethyl-3-[3-(trifluoromethyl)phenyl]propanamido}acetate], the IC50 was less than 10 µM. Take `CCOC(=O)CN(CC)C(=O)CC(Nc1nc2ccccc2[nH]1)c1cccc(C(F)(F)F)c1` (stereo not shown) [Example 48, Ethyl 2-{3-[(1H-1,3-benzodiazol-2-yl)amino]-N-ethyl-3-[3-(trifluoromethyl)phenyl]propanamido}acetate]: the IC50 is less than 10 µM. Consider `CCN(CCO)C(=O)CC(Nc1nc2c(CO)cccc2[nH]1)c1cccc(C(F)(F)F)c1` (stereo not shown) [Example 49, N-ethyl-N-(2-hydroxyethyl)-3-{[4-(hydroxymethyl)-1H-1,3-benzodiazol-2-yl]amino}-3-[3-(trifluoromethyl)phenyl]propanamide], for which the IC50 was 10 to 100 µM. Take `CN(CC#N)C(=O)CC(Nc1nc2c(CO)cccc2[nH]1)c1cccc(C(F)(F)F)c1` (stereo not shown) [Example 50, N-(cyanomethyl)-3-{[4-(hydroxymethyl)-1H-1,3-benzodiazol-2-yl]amino}-N-methyl-3-[3-(trifluoromethyl)phenyl]propanamide]: the IC50 lay within 10 to 100 µM. The value for `CN(CC#N)C(=O)CC(Nc1nc2c(CCO)cccc2[nH]1)c1cccc(C(F)(F)F)c1` (stereo not shown) [Example 51, N-(cyanomethyl)-3-{[4-(2-hydroxyethyl)-1H-1,3-benzodiazol-2-yl]amino}-N-methyl-3-[3-(trifluoromethyl)phenyl]propanamide] was 10 to 100 µM.

On to `CCN(CC#N)C(=O)CC(Nc1nc2c(CCO)cccc2[nH]1)c1cccc(C(F)(F)F)c1` (stereo not shown) [Example 52, N-(cyanomethyl)-N-ethyl-3-{[4-(2-hydroxyethyl)-1H-1,3-benzodiazol-2-yl]amino}-3-[3-(trifluoromethyl)phenyl]propanamide], for which the IC50 is 10 to 100 µM. Regarding `CCN(CC#N)C(=O)CC(Nc1nc2c(CO)cccc2[nH]1)c1cccc(C(F)(F)F)c1` (stereo not shown) [Example 53, N-(cyanomethyl)-N-ethyl-3-{[4-(hydroxymethyl)-1H-1,3-benzodiazol-2-yl]amino}-3-[3-(trifluoromethyl)phenyl]propanamide], the IC50 is 10 to 100 µM. `CCN(CC(N)=O)C(=O)CC(Nc1nc2c(CO)cccc2[nH]1)c1cccc(C(F)(F)F)c1` (stereo not shown) [Example 54, N-(carbamoylmethyl)-N-ethyl-3-{[4-(hydroxymethyl)-1H-1,3-benzodiazol-2-yl]amino}-3-[3-(trifluoromethyl)phenyl]propanamide]: the IC50 was less than 10 µM.

For the compound `CCN(CC#N)C(=O)CC(Nc1nc2ccccc2[nH]1)c1cccc(C(F)(F)F)c1` (stereo not shown) [Example 55, 3-[(1H-1,3-benzodiazol-2-yl)amino]-N-(cyanomethyl)-N-ethyl-3-[3-(trifluoromethyl)phenyl]propanamide], the IC50 is less than 10 µM. On to `CN(CC#N)C(=O)CC(Nc1nc2ccccc2[nH]1)c1cccc(C(F)(F)F)c1` (stereo not shown) [Example 56, 3-[(1H-1,3-benzodiazol-2-yl)amino]-N-(cyanomethyl)-N-methyl-3-[3-(trifluoromethyl)phenyl]propanamide], for which the 50% inhibitory concentration (IC50) was less than 10 µM. As to `COC(=O)CN(C)C(=O)CC(Nc1nc2ccccc2[nH]1)c1cccc(C(F)(F)F)c1` (stereo not shown) [Example 57, Methyl 2-{3-[(1H-1,3-benzodiazol-2-yl)amino]-N-methyl-3-[3-(trifluoromethyl)phenyl]propanamido}acetate], the IC50 was less than 10 µM. As to `CCN(CCSC)C(=O)CC(Nc1nc2c(CO)cccc2[nH]1)c1cccc(C(F)(F)F)c1` (stereo not shown) [Example 58, N-ethyl-3-{[4-(hydroxymethyl)-1H-1,3-benzodiazol-2-yl]amino}-N-[2-(methylsulfanyl)ethyl]-3-[3-(trifluoromethyl)phenyl]propanamide], the IC50 is less than 10 µM. Consider `COC(=O)CNC(=O)CC(Nc1nc2ccccc2[nH]1)c1cccc(C(F)(F)F)c1` (stereo not shown) [Example 59, Methyl 2-{3-[(1H-1,3-benzodiazol-2-yl)amino]-3-[3-(trifluoromethyl)phenyl]propanamido}acetate], for which the IC50 was less than 10 µM. As for `CN(CC(N)=O)C(=O)CC(Nc1nc2ccccc2[nH]1)c1cccc(C(F)(F)F)c1` (stereo not shown) [Example 60, 3-[(1H-1,3-benzodiazol-2-yl)amino]-N-(carbamoylmethyl)-N-methyl-3-[3-(trifluoromethyl)phenyl]propanamide], the IC50 fell in the range of 10 to 100 µM. For the compound `COC(=O)N1CCN(C(=O)C(Nc2nc3ccccc3[nH]2)c2cccc(C(F)(F)F)c2)CC1` (stereo not shown) [Example 61, Methyl 4-{2-[(1H-1,3-benzodiazol-2-yl)amino]-2-[3-(trifluoromethyl)phenyl]acetyl}piperazine-1-carboxylate], the half-maximal inhibitory concentration (IC50) was less than 10 µM. For `COCC(=O)NCCNC(=O)CC(Nc1nc2ccccc2[nH]1)c1cccc(C(F)(F)F)c1` (stereo not shown) [Example 62, 3-[(1H-1,3-benzodiazol-2-yl)amino]-N-[2-(2-methoxyacetamido)ethyl]-3-[3-(trifluoromethyl)phenyl]propanamide], the IC50 was 10 to 100 µM.

As for `CCNC(=O)OCCNC(=O)CC(Nc1nc2ccccc2[nH]1)c1cccc(C(F)(F)F)c1` (stereo not shown) [Example 63, 2-{3-[(1H-1,3-benzodiazol-2-yl)amino]-3-[3-(trifluoromethyl)phenyl]propanamido}ethyl N-ethylcarbamate], the concentration for half-maximal inhibition (IC50) was less than 10 µM.

With `CCN(CCO)C(=O)C(Cc1cccc(C(F)(F)F)c1)Nc1nc2ccccc2[nH]1` (stereo not shown) [Example 64, 2-[(1H-1,3-benzodiazol-2-yl)amino]-N-ethyl-N-(2-hydroxyethyl)-3-[3-(trifluoromethyl)phenyl]propanamide], the IC50 was in the range of 10 to 100 µM. Regarding `CCc1cc(C(CC(=O)N(CC)CCO)Nc2nc3ccccc3[nH]2)ccc1F` (stereo not shown) [Example 65, 3-[(1H-1,3-benzodiazol-2-yl)amino]-N-ethyl-3-(3-ethyl-4-fluorophenyl)-N-(2-hydroxyethyl)propanamide], the IC50 is less than 10 µM. Regarding `CCOC(=O)NCc1ccc2[nH]c(NC(CC(=O)N(CC)CCO)c3cccc(C(F)(F)F)c3)nc2c1` (stereo not shown) [Example 66, Ethyl N-{[2-({2-[ethyl(2-hydroxyethyl)carbamoyl]-1-[3-(trifluoromethyl)phenyl]ethyl}amino)-1H-1,3-benzodiazol-5-yl]methyl}carbamate], the IC50 fell in the range of 10 to 100 µM. As to `O=C(CC(Nc1nc2ccccc2[nH]1)c1cccc(C(F)(F)F)c1)NCCOC(F)(F)F` (stereo not shown) [Example 67, 3-[(1H-1,3-benzodiazol-2-yl)amino]-N-[2-(trifluoromethoxy)ethyl]-3-[3-(trifluoromethyl)phenyl]propanamide], the IC50 was less than 10 µM. The result for `O=C(CC(Nc1nc2ccccc2[nH]1)c1cccc(C(F)(F)F)c1)NCCOCC(F)(F)F` (stereo not shown) [Example 68, 3-[(1H-1,3-benzodiazol-2-yl)amino]-N-[2-(2,2,2-trifluoroethoxy)ethyl]-3-[3-(trifluoromethyl)phenyl]propanamide] reads less than 10 µM.

Values taken from patent US11274092B2, “Potassium channel inhibitors” (ACESION PHARMA ApS, priority 2016, dated 2022).
